Our source for the IC50 values is ChEMBL document CHEMBL5728755, “Spirocycle compounds and methods of making and using same” (2021).

Assay [1] concerns the target T1, Monoglyceride lipase (Mus musculus, UniProt O35678).
T1 sequence (O35678 whole entry): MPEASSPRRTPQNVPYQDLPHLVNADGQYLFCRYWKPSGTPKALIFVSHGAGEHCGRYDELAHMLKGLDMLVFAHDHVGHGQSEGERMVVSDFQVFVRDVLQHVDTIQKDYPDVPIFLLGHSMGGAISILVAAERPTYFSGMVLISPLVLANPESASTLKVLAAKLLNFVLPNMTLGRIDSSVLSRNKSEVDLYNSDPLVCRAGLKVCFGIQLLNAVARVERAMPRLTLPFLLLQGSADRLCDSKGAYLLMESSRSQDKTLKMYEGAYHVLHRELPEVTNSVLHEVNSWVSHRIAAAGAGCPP
The assay can be described thus: Preparation of Mouse Brain Proteomes from Inhibitor Treated Mice: Inhibitors were administered to wild-type C57B1/6J by oral gavage in a vehicle of polyethylene glycol. Each animal was sacrificed 4 h following administration and brain proteomes were prepared and analyzed according to previously established methods (See Niphakis, M. J., et al. (2011) ACS Chem. Neurosci. and Long, J. Z., et al. Nat. Chem. Biol. 5:37-44).

In assay [2] the target is T2, Monoglyceride lipase (Homo sapiens, UniProt Q99685).
T2 sequence (Q99685 whole entry): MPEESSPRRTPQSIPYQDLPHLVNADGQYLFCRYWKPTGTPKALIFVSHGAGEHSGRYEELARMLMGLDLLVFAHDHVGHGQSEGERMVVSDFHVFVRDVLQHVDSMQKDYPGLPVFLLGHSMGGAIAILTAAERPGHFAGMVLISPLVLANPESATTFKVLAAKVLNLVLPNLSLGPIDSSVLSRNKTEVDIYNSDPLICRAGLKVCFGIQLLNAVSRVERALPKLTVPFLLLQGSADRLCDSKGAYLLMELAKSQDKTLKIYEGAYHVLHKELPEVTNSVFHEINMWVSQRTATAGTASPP
Nature of the assay: In Vitro Competitive Activity-Based Protein Profiling: Proteomes (human prefrontal cortex or cell membrane fractions) (50 μL, 1.0 mg/mL total protein concentration) were preincubated with varying concentrations of inhibitors at 37° C. After 30 min, FP-Rh or HT-01 (1.0 μL, 50 μM in DMSO) was added and the mixture was incubated for another 30 min at room temperature. Reactions were quenched with SDS loading buffer (15 μL—4×) and run on SDS-PAGE.

Regarding `Cc1c(CN2CCCC23CCN(C(=O)OC(C(F)(F)F)C(F)(F)F)CC3)[nH]c2ccc(Cl)cc12`, the IC50 against Monoglyceride lipase [1] and at Monoglyceride lipase [2] was below 100 nM throughout.

Consider `O=C(OC(C(F)(F)F)C(F)(F)F)N1CCC2(CCCN2C(=O)c2cc3ccc(F)cc3s2)CC1`, for which, on Monoglyceride lipase [1], the 50% inhibitory concentration (IC50) is below 100 nM.

`Cc1ccc2cc(C(=O)N3CCCC34CCN(C(=O)OC(C(F)(F)F)C(F)(F)F)CC4)sc2c1` yielded an IC50 on Monoglyceride lipase [1] below 100 nM.

For the compound `O=C(OC(C(F)(F)F)C(F)(F)F)N1CCC2(CCCN2Cc2cc3cc(Cl)c(Cl)cc3[nH]2)CC1`, at Monoglyceride lipase [2], the IC50 is below 100 nM.

`COCCN(C(=O)C1(c2ncccn2)CC1)C1(C)CCN(C(=O)OC(C(F)(F)F)C(F)(F)F)CC1`: the IC50 at Monoglyceride lipase [2] is below 100 nM.

Turning to `COc1cccc2cc(CN3CCCC34CCN(C(=O)OC(C(F)(F)F)C(F)(F)F)CC4)[nH]c12`, the IC50 against Monoglyceride lipase [1] and on Monoglyceride lipase [2] was below 100 nM each time.
